The test system of data set [1] is ribonuclear foci in DM1 fibroblasts. Kind of data set: Ribonuclear foci detection by in situ hybridization in DM1 fibroblasts. Conditions: caffeine in culture media, vs DMSO.
Protocol: Cell model of the disease (provided by the D. Furling's laboratory, Institute of Myologie, Paris) consisted of normal and DM1 (1300 CTG repeats) immortalized (hTERT) skin fibroblasts expressing conditional MyoD. […] Fibroblasts were transdifferentiated in myoblasts by inducing expression of MyoD. Cells were plated in muscle differentiation medium (MDM) made of DMEM 4.5 g/L glucose with 1% P/S, 2% horse serum, 1% apo-transferrin (10 mg/ml), 0.1% insulin (10 mg/ml) and 0.02% doxycyclin (10 mg/ml) for 48 h. For compound testing fibroblasts were aliquoted in 24-well plate with 3.5×10^4 cells per well and were differentiated as before.
In a further data set the test system is normal fibroblasts. Kind of data set: MTS cell viability of normal fibroblasts exposed to caffeine. Particulars: highest concentration (500 μM), 24 h, relative to cells not exposed to caffeine. Type of data set: cell-based, human. As to the method:
Cells were aliquoted in 96-well plate with 1.0×10^4 cells per well and incubated for 24 h. […] To measure cell viability, MTS tetrazolium salt was added to each well and was incubated for 4 h at 37° C. in a humidified chamber with 5% CO2. The conversion of MTS into soluble formazan (accomplished by dehydrogenase enzymes from metabolically active cells) was measured by absorbance at 490 nm (CellTiter 96® Aqueous Non-Radioactive Cell Profileration Assay, Promega). Data were transformed to percentage of survival relative to cells not exposed to caffeine, which established 100% viability.

Data set [2] relates to human MBNL1 promoter under Drosophila muscleblind ME enhancer (eGFP reporter). Kind of data set: eGFP reporter expression in ME:hsaP1-eGFP transgenic flies. Conditions: heterozygous ME:hsaP1-eGFP flies, 25 mg/ml caffeine in food, 8 h, vs sucrose. Type of data set: in vivo.
The test system of data set [3] is MBNL1 expression in human DM1 myoblasts. Kind of data set: Immunodetection of MBNL1 in DM1 myoblasts. Format: cell-based.
Protocol: Fibroblasts were transdifferentiated in myoblasts by inducing expression of MyoD. Cells were plated in muscle differentiation medium (MDM) made of DMEM 4.5 g/L glucose with 1% P/S, 2% horse serum, 1% apo-transferrin (10 mg/ml), 0.1% insulin (10 mg/ml) and 0.02% doxycyclin (10 mg/ml) for 48 h. For compound testing fibroblasts were aliquoted in 24-well plate with 3.5×10^4 cells per well and were differentiated as before. […] Cells were then incubated with ABC solution (ABC kit, VECTASTAIN) for 30 min at room temperature, followed by PBT washes and incubation with streptavidin-FITC (1:1000) for 20 min.
Data set [4] deals with CUG repeat RNA (6-FAM-CUG23). Description: Fluorescence polarization assay with 6-FAM-CUG23 RNA. Type of data set: binding. Conditions: increasing concentrations, up to twice those of positive control pentamidine. As to the method: This was assessed in fluorescence polarization spectroscopy experiments in which fluorescent CUG RNA probe (carboxyfluorescein (6-FAM)-labeled) was incubated in increasing concentrations of caffeine.
Carboxyfluorescein-labeled CUG RNA (23 CUG repeats; 6-FAM-CUG23) at 6 nM was incubated with caffeine at different concentrations in binding buffer (50 mM Tris-HCl pH 7.0, 250 mM NaCl, 50 μM ZnCl2, 10% glycerol, 1 mM DTT) on ice for 20 min in the dark. Polarization was measured in a EnVision® Multilabel Reader using as excitation filter FP480 and as emission filter FP535.
A general note: Polarisation of emitted light reports the rotation of a fluorescent probe.

The subject of another data set is DM1 model flies. Description: Climbing assay in DM1 model flies. Type of data set: in vivo, Drosophila. Conditions: 1.72 mM caffeine in nutritive media vs DMSO. As to the method:
Groups of ten 5-day-old males were transferred into vials of 1.5 cm in diameter and 25 cm in height, after a period of 24 hours without anesthesia. The height reached from the bottom of the vial by each fly in a period of 10 s was recorded with a camera. For each genotype, approximately 30 flies were tested. […] We used a t-test to assess the statistical difference between the two groups of flies, fed with or without compound.

The test system of another data set is foci. Conditions: WO03/020977; cited from earlier work.
The test system of the next data set is CUG repeats. Particulars: WO03/020977; cited from earlier work.
In the next data set the test system is CAG-CTG repeat sequences. Particulars: high doses of caffeine, close to 2 mM; cited from earlier work.
Data set [5] has as its system DM1 pathology (splicing defects). Conditions: cited from earlier work.
The next data set has as its system sodium channel. Particulars: small studies; cited from earlier work.

`Cn1c(=O)c2c(ncn2C)n(C)c1=O` [caffeine]: the “mean number of ribonuclear foci per cell” value in data set [1] is on record as “increased”. Further, in the data set with normal fibroblasts, the “percentage of survival of normal fibroblasts (living cells)” value is “greater than 50%”. Further, the “expression of the eGFP reporter, normalized to total protein” value in [2] is listed as “significantly increase”. The “MBNL1 expression in the cytoplasm and in the cell nucleus” value in [3] (125 and 250 μM caffeine, 48 h, vs DMSO alone) is given as “increased”. The “number of MBNL1-containing foci” value in [3] (caffeine-treated vs DMSO-treated cells) is reported as “qualitatively higher”. Further, in [4], the “polarization values of 6-FAM-CUG RNA (binding to CUG repeats)” value was “did not increase”. Further, the climbing velocity result with DM1 model flies was “significantly improved”. In the data set with foci, the number of foci result is given as “increases”. For the same compound, in the data set on CUG repeats, the “binding to CUG repeats” value is on record as “not able to bind”. In addition, the “increase of the rate of expansion” value in the data set with CAG-CTG repeat sequences is recorded as around 63%.
As for `N=C(N)c1ccc(OCCCCCOc2ccc(C(=N)N)cc2)cc1` [pentamidine], in data set [5], the “rescue of DM1 pathology” value was “partial rescue”.
In the case of `Cc1cccc(C)c1OCC(C)N` (stereo not drawn) [Mexiletine, mexiletine], the myotonia entry in the data set on sodium channel is “reduced”.

Source of the values: patent US20170304309A1, “CAFFEINE FOR THE TREATMENT OF MYOTONIC DYSTROPHY TYPE 1 AND TYPE 2” (UNIVERSITAT DE VALÈNCIA, priority 2014, published 2017).
